Results as given in patent US7008936B2, “Combination of epothilone analogs and chemotherapeutic agents for the treatment of proliferative diseases” (Bristol-Myers Squibb Company, priority 2002, dated 2006).

Key:
advanced cancer = experiment: Phase I study of Compound 1 in combination with carboplatin in patients with advanced cancer, day 1 and split day 1/8 schedules (Example 2)
Description: Compound 1 was assessed in Phase I studies in combination with other chemotherapeutic agents. Compound 1 was given as a 60-minute infusion, 30 minutes prior to a 30-minute carboplatin infusion on day 1 every three weeks (or 21 days). Pharmacokinetic samples were taken during the first cycle. Twenty-five (25) patients were treated on this schedule at 4 dose levels (Compound 1 doses of 30 mg/m^2 or 40 mg/m^2 with carboplatin doses of […], or AUC 5 or 6).
A further 14 patients were recruited onto an amended schedule with Compound 1 doses being split and administered on days 1 and 8 every three weeks (or 21 days) and carboplatin being administered on day 1.

[1] = system: paclitaxel-sensitive (A2780, HCT116 and LS174T) and paclitaxel-resistant human colon tumors (HCT116/VM46), ovarian carcinoma (Pat-7 and A2780Tax) and breast …; experiment: Preclinical pharmacology studies, antitumor activity in tumor models; assay type: in vivo
[2] = Compound 1 plasma levels (pharmacokinetic samples, first cycle) in Phase I combination study; assay type: in vivo, human; settings: patients, IV infusion, with carboplatin
From the text: Pharmacokinetic samples were taken during the first cycle.

advanced solid tumors = experiment: Compound 1 followed by carboplatin IV every 3 weeks in patients with advanced cancer (Example 1)
Description: Compound 1 followed by carboplatin was given intravenously every 3 weeks to patients with advanced solid tumors treated with ≦2 prior chemotherapy regimens. Pharmacokinetics of both drugs were measured on the first course. Twenty-five (25) patients were treated at four dose levels—combining Compound 1 (30 or 40 mg/m^2) with […] or AUC 5 or 6 (Calvert formula; Calvert et al., J. Clin. Oncol., 1989, 7, 1748–1756) of carboplatin. A total of 91 courses were given.

Question: With `C/C(=C\c1csc(C)n1)[C@@H]1C[C@@H]2O[C@]2(C)CCC[C@H](C)[C@H](O)[C@@H](C)C(=O)C(C)(C)[C@@H](O)CC(=O)N1` (relative stereo) [Compound 1, [1S-1R*,3R*(E),7R*,10S*,11R*,12R*,16S*]]-7,11-dihydroxy-8,8,10,12,16-pentamethyl-3-[1-methyl-2-(2-methyl-4-thiazolyl)ethenyl]-4-aza-17-oxabicyclo[14.1.0]heptadecane-5,9-dione] as the compound, how does the “patients showing disease stabilization for more than two months” value (advanced cancer; Compound 1 + carboplatin) read?
Answer: The value was 48%.

Question: And the major toxicities (advanced cancer; Compound 1 + carboplatin, 39 patients over 7 dose levels)?
Answer: Its major toxicities is “myelosuppression, myalgia and peripheral neuropathy”.

Question: And the partial responses (advanced cancer; Compound 1 + carboplatin, 39 patients, 2 breast, neuro-endocrine, unknown primary carcinomas and mesothelioma)?
Answer: The partial responses was 5 patients.

Question: What about the “dose at which DLT was observed, split schedule” value (advanced cancer; Compound 1 on days 1 and 8 every three weeks with carboplatin AUC 6 on day 1) of the same compound?
Answer: Its value is 25 mg/m^2.

Question: What about the “dose at which dose limiting toxicity (DLT) occurred” value (advanced cancer; Compound 1 day 1 every three weeks with carboplatin AUC 6, myelosuppression as major toxicity) of the same compound?
Answer: The value was 40 mg/m^2.

Question: What about the “patients who withdrew from the study because of study drug toxicity” value (advanced cancer; peripheral neuropathy reported in all these patients, 39 patients treated) of the same compound?
Answer: Its value is “Eleven”.

Question: What about the oral efficacy ([1]; oral administration, comparable to parenteral administration) of the same compound?
Answer: The oral efficacy was “orally efficacious”.

Question: And the antitumor activity ([1]; paclitaxel-sensitive and paclitaxel-resistant tumor models)?
Answer: The antitumor activity was “very impressive and broad spectrum of antitumor activity”.

Question: What about the half-life ([2]; human) of the same compound?
Answer: Its half-life is ~30 h.

Question: And the “Cmax and AUC” value [2]?
Answer: Its value is “increase with dose”.

Question: And the volume of distribution [2]?
Answer: Its volume of distribution is “high”.

Question: And the confirmed partial responses (advanced solid tumors; Compound 1 30 or 40 mg/m^2 + carboplatin AUC 5 or 6, IV every 3 weeks, 25 patients, breast, neuroendocrine and unknown primary carcinomas)?
Answer: Its confirmed partial responses is 3/25.

Question: What about the “patients with disease stabilization and clinical benefit from treatment” value (advanced solid tumors; Compound 1 + carboplatin every 3 weeks, 25 patients treated) of the same compound?
Answer: Its value is 12 patients.

Question: And the “dose at which CTC grade 4 neutropenia was dose limiting” value (advanced solid tumors; human, in vivo)?
Answer: The value was 40 mg/m^2.

Question: What about the “maximum tolerated dose of Compound 1” value (advanced solid tumors; with carboplatin AUC 5 (Calvert formula), every 3 weeks) of the same compound?
Answer: The value was 40 mg/m^2.
